Measurements: patent publication US20230112418A1, “COMPOUND AND RADIOACTIVE LABELING COMPOUND” (NIHON MEDI-PHYSICS CO., LTD., priority 2020, published 2023)

Tests used:
[1] = test system: PC-3 tumor transplanted mice; assay: In vivo radioactivity distribution using PC-3 tumor transplanted mice
Description: Animal experiments were performed in accordance with the guidelines of Kyoto University Animal Experiment Committee. Male CB17/IcrJcl-Prkdc^scid mice were purchased from CLEA Japan, Inc. The animals were raised under 12 h/12 h day/night cycle conditions and freely fed with food and water. LNCaP cells (1.0×10^7 cells/mouse) or PC-3 cells (1.0×10^7 cells/mouse) were suspended in a mixed liquid (1:1,150 μL) of PBS and Matrigel manufactured by Corning Life Sciences Inc., and the suspension was subcutaneously transplanted to the right shoulder of each of the mice under isoflurane anesthesia. Thereafter, the mice were raised for 40 to 60 days.
A saline solution (185 kBq, 100 μL) of [^111In]In-PSMA-DA1 or [^111In]In-PSMA-DB was injected into each of LNCaP or PC-3 tumor transplanted mice via the tail vein thereof (n=3 in each group). The mice were euthanized 1, 4, 24, 48, 96, and 192 hours after the injection. Thereafter, blood and organs were collected, and the mass and radioactivity of each of the organs were measured.
A result thereof is indicated as a value (% ID/g) obtained by dividing the percentage (% ID) of the amount of radioactivity with respect to the amount of injected radioactivity (injected dose) by the mass of blood or the mass of an organ (g).

[2] = target: human serum albumin (HSA) (Homo sapiens, UniProt P02768); assay: Evaluation of binding to albumin (spin column), HSA solution and PBS; conditions: FIG. 5
human serum albumin (HSA), sequence (P02768 25-609): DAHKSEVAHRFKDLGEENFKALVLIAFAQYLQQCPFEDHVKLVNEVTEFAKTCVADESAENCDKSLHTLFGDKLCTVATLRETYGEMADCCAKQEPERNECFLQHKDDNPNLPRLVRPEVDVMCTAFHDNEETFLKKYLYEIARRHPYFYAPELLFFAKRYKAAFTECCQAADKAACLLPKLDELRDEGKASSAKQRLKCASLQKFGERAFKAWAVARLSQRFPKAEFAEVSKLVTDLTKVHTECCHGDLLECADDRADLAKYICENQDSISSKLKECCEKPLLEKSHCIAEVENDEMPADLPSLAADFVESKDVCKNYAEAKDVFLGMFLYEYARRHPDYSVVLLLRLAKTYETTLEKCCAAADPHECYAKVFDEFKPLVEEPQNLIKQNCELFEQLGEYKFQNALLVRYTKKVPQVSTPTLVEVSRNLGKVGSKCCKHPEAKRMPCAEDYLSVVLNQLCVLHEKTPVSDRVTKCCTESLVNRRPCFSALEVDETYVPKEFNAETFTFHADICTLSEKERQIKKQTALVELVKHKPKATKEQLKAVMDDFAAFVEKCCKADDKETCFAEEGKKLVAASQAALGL
Description: Thereafter, the reaction liquid was added to a spin column (Sephadex G-100 manufactured by Cytiva), and centrifuged at 1500×g at 4° C. for two minutes. After the separation, the radioactivity of each of the column and the eluate was measured with a gamma counter.
Data was expressed as mean±standard deviation. A significant difference test was performed using Student's t-test, and a result of p<0.05 was defined to have a significant difference.
The higher a value, the higher binding property to albumin.
Thereafter, the reaction liquid was added to a spin column (Sephadex G-100 manufactured by Cytiva), and centrifuged at 1500×g at 4° C. for two minutes. After the centrifugation, the radioactivity of each of the column and the eluate was measured with a gamma counter.

[3] = test system: LNCaP cells (PSMA positive); assay: Evaluation of binding using cultured cells (LNCaP); format: cell-based, human; conditions: FIG. 4
Description: LNCaP cells (PSMA positive, human prostate cancer) and PC-3 cells (PSMA negative, human prostate cancer) were used. These cells were purchased from American Type Culture Collection and DS Biomedical, respectively. The LNCaP cells and the PC-3 cells were each cultured in RPMI 1640 containing antibiotics (penicillin and streptomycin) and 10% inactivated fetal bovine serum, manufactured by Nacalai Tesque, Inc. at 37° C. under 5% CO2.
The LNCaP cells and the PC-3 cells were each seeded in a 12 well plate at 4.0×10^5 cells/well, and allowed to stand at 37° C. under 5% CO2 for 48 hours.
The culture medium was removed, and an assay medium (0.5% FBS-containing RPMI 1640 medium) solution (1 mL) containing [^111In]In-PSMA-DA1 or [^111In]In-PSMA-DB (37 kBq) was added to the residue. Thereafter, the plate was allowed to stand at 37° C. under 5% CO2 for one hour. […]
The radioactivity of each of the assay medium and the cell lysate was measured with a gamma counter. Separately from this, the total protein concentration in the cell lysate was calculated using a BCA Protein Assay Kit manufactured by Thermo Fisher Scientific. A value (% ID/mg protein) obtained by dividing the percentage (% ID) of the amount of radioactivity of a sample to the amount of added radioactivity by the total protein mass was calculated for each sample.
Data was expressed as mean±standard deviation. […]

Accumulation: Blood ([1]; 1 hour after injection): 1.92 ± 0.27 % ID/g
Accumulation: Brain ([1]; 1 hour after injection): 0.06 ± 0.00 % ID/g
Accumulation: Heart ([1]; 1 hour after injection): 0.49 ± 0.05 % ID/g
Accumulation: Intestinal ([1]; 1 hour after injection): 0.48 ± 0.04 % ID/g
Accumulation: Kidney ([1]; 1 hour after injection): 49.5 ± 12.6 % ID/g
Accumulation: Liver ([1]; 1 hour after injection): 0.62 ± 0.03 % ID/g
Accumulation: Lung ([1]; 1 hour after injection): 1.36 ± 0.23 % ID/g
Accumulation: Muscle ([1]; 1 hour after injection): 0.21 ± 0.08 % ID/g
Accumulation: PC-3 tumor ([1]; 1 hour after injection): 0.61 ± 0.06 % ID/g
Accumulation: Pancreas ([1]; 1 hour after injection): 0.44 ± 0.06 % ID/g
Accumulation: Spleen ([1]; 1 hour after injection): 2.57 ± 0.39 % ID/g
Accumulation: Stomach ([1]; 1 hour after injection): 0.12 ± 0.04 % ID
Compound: O=C([O-])CN1CCN(C(CCC(=O)NCCCC[C@H](NC(=O)N[C@@H](CCC(=O)O)C(=O)O)C(=O)O)C(=O)[O-])CCN(CC(=O)[O-])CCN(C(CCC(=O)Nc2ccccc2)C(=O)[O-])CC1.[111In+3] (stereo partly shown) [[^111In]In-PSMA-DB]
Accumulation in the PC-3 tumor compared with the LNCaP tumor (in words) ([1]; same time point): lower than accumulation thereof in the LNCaP tumor at the same time point
Radioactivity in the eluate, PBS (in words) [2]: no significant radioactivity was observed in the eluate
Effect of excess 2-PMPA on binding (in words) ([3]; 2-PMPA 100 μM): significantly reduced
Binding property LNCaP vs PC-3 cells (in words) [3]: higher binding property to the LNCaP cells than the PC-3 cells
